Experimental data taken from patent publication EP0745595A1, “3-(3-Aryloxyphenyl)-1-(substituted methyl)-s-triazine-2,4,6-oxo or thiotrione herbicidal agents” (American Cyanamid Company, priority 1995, dated 1996).

Assays:
Assay type in all cases: in vivo
[1] = system: ABUTILON THEOPHRASTI, MEDIC.; test: Postemergence herbicidal evaluation, ABUTH (Velvetleaf)
How it was run: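 This postemergence herbicide test used two-week-old velvetleaf seedlings grown in jiffy flats. Each compound was sprayed at 40 psi as a dispersion in 50/50 acetone/water with 0.5% TWEEN®20 surfactant. Plants then received routine greenhouse care. After four to five weeks, injury was scored visually on a 0-9 scale against a control, and replicate tests were averaged.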

[2] = system: AMBROSIA ARTEMISIIFOLIA, L.; test: Postemergence herbicidal evaluation, AMBEL (Ragweed, Common)
How it was run: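 Postemergence herbicidal activity on AMBEL (common ragweed) was assessed on two-week-old seedlings grown in jiffy flats. Treatment solutions of 50/50 acetone/water with 0.5% TWEEN®20 surfactant were sprayed at 40 psi. After four to five weeks in the greenhouse, plants were scored 0-9 against a control for stand, vigor, malformation, size, chlorosis and overall appearance, with multiple tests averaged.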

[3] = system: CASSIA OBTUSIFOLIA, L.; test: Postemergence herbicidal evaluation, CASOB (Sicklepod); parameters: key to CASOB rating / Herbicidal effect rating, CASOB / CASOB: 0-9 visual rating scale vs untreated control
How it was run: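 Spray: acetone/water 50/50 + 0.5% TWEEN 20; rate ~0.125–0.500 kg/ha; nozzle 40 psi; ~2-wk seedlings. Read: visual 0–9 rating at 4–5 wk post-treatment vs control; replicate tests averaged.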

[4] = system: IPOMOEA SPP.; test: Postemergence herbicidal evaluation, IPOSS (Morningglory spp.)
How it was run: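 In this greenhouse postemergence herbicide test on Ipomoea spp. (morningglory), compounds in 50/50 acetone/water with 0.5% TWEEN®20 were sprayed at 40 psi onto seedlings about two weeks old grown in jiffy flats. After four to five weeks, injury was scored on a 0-9 scale covering stand, vigor, malformation, size, chlorosis and overall appearance versus control, with repeat tests averaged.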

[5] = system: GALIUM APARINE; test: Postemergence herbicidal evaluation, GALAP (Galium); parameters: key to GALAP rating / Herbicidal effect rating, GALAP / GALAP: 0-9 visual rating scale vs untreated control
How it was run: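 In this postemergence greenhouse test, two-week-old Galium aparine seedlings grown in jiffy flats received a 40 psi spray of compound in acetone/water (50/50) with 0.5% TWEEN®20 surfactant. After four to five weeks, stand, vigor, malformation, size, chlorosis and overall appearance were compared with untreated controls on a 0-9 scale, averaging multiple tests.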

[6] = system: ECHINOCHLOA CRUS-GALLI, (L) BEAU; test: Postemergence herbicidal evaluation, ECHCG (Barnyardgrass); parameters: key to ECHCG rating / Herbicidal effect rating, ECHCG / ECHCG: 0-9 visual rating scale vs untreated control
How it was run: (§1)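 Postemergence foliar spray at approximately 0.125–0.500 kg/ha onto two-week seedlings; greenhouse hold, then 0–9 visual injury rating after 4–5 weeks.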

[7] = system: SETARIA VIRIDIS, (L) BEAU; test: Postemergence herbicidal evaluation, SETVI (Foxtail, Green); parameters: key to SETVI rating / Herbicidal effect rating, SETVI / SETVI: 0-9 visual rating scale vs untreated control
How it was run: as §1

[8] = system: TRITICUM AESTIVUM, CV. APOLLO; test: Postemergence herbicidal evaluation, TRZAWO (Wheat, Winter, CV. APOLLO)
How it was run: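 This greenhouse postemergence test applied compounds to roughly two-week-old wheat seedlings grown in jiffy flats. The spray solution was 50/50 acetone/water with 0.5% TWEEN®20, a polyoxyethylene sorbitan monolaurate, sprayed from a nozzle run at 40 psi. After four to five weeks of standard greenhouse care, injury was scored from 0 to 9 by comparing stand, vigor, malformation, size, chlorosis and overall appearance with a control. Multiple tests were averaged.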

[9] = system: ZEA MAYS L.; test: Postemergence herbicidal evaluation, ZEAMX (Corn, Field)
How it was run: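 This greenhouse postemergence test treated corn plants about two weeks old. Compounds in a 50/50 acetone/water mixture with 0.5% TWEEN®20 were applied through a spray nozzle at 40 psi. After four to five weeks, injury was scored 0-9 against an untreated control, judging stand, vigor, malformation, size, chlorosis and overall appearance. Repeated tests were averaged.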

[10] = system: CHENOPODIUM ALBUM, L.; test: Preemergence herbicidal evaluation, CHEAL (Lambsquarters, Common); conditions: for CHEAL herbicidal rating: rated four to five weeks after treatment
How it was run: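 Preemergence, greenhouse: seed + potting soil sown on ~1 inch soil in cups; aqueous acetone spray, ~0.125–0.50 kg/ha equivalent; rated 0-9 vs control at 4–5 wk.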

[11] = system: ORYZA SATIVA, L. TEBONNET; test: Rice tolerance to post-transplant applications under flooded paddy conditions, ORYSAT (Rice, Tebonnet); conditions: for Herbicidal effect rating, ORYSAT: post-transplant rice, 3-4 weeks after treatment; for ORYSAT: post-transplanted rice
How it was run: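 Rated on a visual 0–9 scale against untreated plants 3–4 weeks after application, rice (cv. Tebonnet) tolerance was tested by applying compounds (approx. 0.5–0.063 kg/ha, acetone/water 50/50) to flooded soil three days post-transplant, water kept 1.5–3 cm deep.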

Methyl 3-{2-[(2-chloro-α,α,α,-trifluoro-p-tolyl)oxy]phenyl}tetrahydro-5-methyl-2,4,6-trioxo-s-triazine-1(2H)-acetate [Compound 28]
ABUTH ([1]; Rate 0.063 kg/ha): 4.0
ABUTH ([1]; Rate 0.125 kg/ha): 6.0
ABUTH rating ([1]; Rate 0.125 kg/ha): 6.0
ABUTH ([1]; Rate 0.250 kg/ha): 7.0
ABUTH rating ([1]; Rate 0.250 kg/ha): 7.0
ABUTH ([1]; Rate 0.500 kg/ha): 9.0
ABUTH rating ([1]; Rate 0.500 kg/ha): 9.0
AMBEL ([2]; Rate 0.063 kg/ha): 3.0
AMBEL ([2]; Rate 0.125 kg/ha): 4.0
AMBEL rating ([2]; Rate 0.125 kg/ha): 4.0
AMBEL ([2]; Rate 0.250 kg/ha): 6.0
AMBEL rating ([2]; Rate 0.250 kg/ha): 6.0
AMBEL ([2]; Rate 0.500 kg/ha): 7.0
AMBEL rating ([2]; Rate 0.500 kg/ha): 7.0
CASOB ([3]; Rate 0.063 kg/ha): 3.0
CASOB ([3]; Rate 0.125 kg/ha): 5.0
CASOB rating ([3]; Rate 0.125 kg/ha): 5.0
CASOB ([3]; Rate 0.250 kg/ha): 6.0
CASOB rating ([3]; Rate 0.250 kg/ha): 6.0
CASOB ([3]; Rate 0.500 kg/ha): 6.5
CASOB rating ([3]; Rate 0.500 kg/ha): 6.5
IPOSS ([4]; Rate 0.063 kg/ha): 6.0
IPOSS ([4]; Rate 0.125 kg/ha): 6.0
IPOSS rating ([4]; Rate 0.125 kg/ha): 6.0
IPOSS ([4]; Rate 0.250 kg/ha): 8.0
IPOSS rating ([4]; Rate 0.250 kg/ha): 8.0
IPOSS ([4]; Rate 0.500 kg/ha): 9.0
IPOSS rating ([4]; Rate 0.500 kg/ha): 9.0
GALAP ([5]; Rate 0.063 kg/ha): 6.0
GALAP ([5]; Rate 0.125 kg/ha): 4.0
GALAP rating ([5]; Rate 0.125 kg/ha): 4.0
GALAP ([5]; Rate 0.250 kg/ha): 5.0
GALAP rating ([5]; Rate 0.250 kg/ha): 5.0
GALAP ([5]; Rate 0.500 kg/ha): 4.5
GALAP rating ([5]; Rate 0.500 kg/ha): 4.5
ECHCG ([6]; Rate 0.063 kg/ha): 0.0
ECHCG ([6]; Rate 0.125 kg/ha): 0.0
ECHCG rating ([6]; Rate 0.125 kg/ha): 0.0
ECHCG ([6]; Rate 0.250 kg/ha): 0.0
ECHCG rating ([6]; Rate 0.250 kg/ha): 0.0
ECHCG ([6]; Rate 0.500 kg/ha): 2.0
ECHCG rating ([6]; Rate 0.500 kg/ha): 2.0
SETVI ([7]; Rate 0.063 kg/ha): 1.0
SETVI ([7]; Rate 0.125 kg/ha): 1.0
SETVI rating ([7]; Rate 0.125 kg/ha): 1.0
SETVI ([7]; Rate 0.250 kg/ha): 2.0
SETVI rating ([7]; Rate 0.250 kg/ha): 2.0
SETVI ([7]; Rate 0.500 kg/ha): 4.0
SETVI rating ([7]; Rate 0.500 kg/ha): 4.0
TRZAWO ([8]; Rate 0.063 kg/ha): 1.5
TRZAWO ([8]; Rate 0.125 kg/ha): 2.0
TRZAWO rating ([8]; Rate 0.125 kg/ha): 2.0
TRZAWO ([8]; Rate 0.250 kg/ha): 2.0
TRZAWO rating ([8]; Rate 0.250 kg/ha): 2.0
TRZAWO ([8]; Rate 0.500 kg/ha): 2.0
TRZAWO rating ([8]; Rate 0.500 kg/ha): 2.0
ZEAMX ([9]; Rate 0.063 kg/ha): 1.5
ZEAMX ([9]; Rate 0.125 kg/ha): 2.5
ZEAMX rating ([9]; Rate 0.125 kg/ha): 2.5
ZEAMX ([9]; Rate 0.250 kg/ha): 4.0
ZEAMX rating ([9]; Rate 0.250 kg/ha): 4.0
ZEAMX ([9]; Rate 0.500 kg/ha): 4.5
ZEAMX rating ([9]; Rate 0.500 kg/ha): 4.5
CHEAL ([10]; Rate 0.125 kg/ha): 3.0
CHEAL herbicidal rating ([10]; Rate 0.125 kg/ha): 3.0
CHEAL ([10]; Rate 0.250 kg/ha): 6.0
CHEAL herbicidal rating ([10]; Rate 0.250 kg/ha): 6.0
CHEAL ([10]; Rate 0.500 kg/ha): 7.0
CHEAL herbicidal rating ([10]; Rate 0.500 kg/ha): 7.0
CHEAL ([10]; Rate 1.000 kg/ha): 9.0
Herbicidal effect rating, ORYSAT ([11]; 0.063 kg/ha): 0.0
Herbicidal effect rating, ORYSAT ([11]; 0.125 kg/ha): 1.0
Herbicidal effect rating, ORYSAT ([11]; 0.250 kg/ha): 2.0
Herbicidal effect rating, ORYSAT ([11]; 0.500 kg/ha): 2.0
ORYSAT ([11]; Rate 0.250 kg/ha): 2.0
ORYSAT ([11]; Rate 0.500 kg/ha): 2.0
ORYSAT ([11]; Rate 1.000 kg/ha): 3.0
